One data set in a line: circular dichroism. The conditions noted are these: water; pH ns; 25 °C; 150 uM.
The subject of the next data set is all bacteria tested. Nature of the data set: MIC panel, geometric mean over all strains. Format: cell-based. Particulars: geometric mean of the MICs against all bacteria tested. How it is done: (§1) The antimicrobial efficacy of the TLcyc analogues was assessed against a representative panel of Gram-positive and Gram-negative bacterial strains, by determining their minimal inhibitory concentrations (MIC), as summarized in Table . To provide an integrated measure of antimicrobial potency, we calculated the geometric mean (GM) of MIC values across all strains (GMall), as well as separately for Gram-positive (GMGram+) and Gram-negative (GMGram–) bacteria.
(§2) Bacterial strains used in this study were the Gram-positive S. aureus ATCC 25923, S. epidermidis ATCC 12228, B. megaterium BM11, S. agalactiae ATCC 27591, E. faecalis ATCC 29212 and the Gram-negative E. coli ATCC 25922, P. aeruginosa ATCC 27853, A. baumannii ATCC 19606, E. coli D21 and P. aeruginosa PAO1. […] Bacterial cells in the mid log phase were diluted in Muller Hinton (MH) at a concentration of 2 × 10^6 cell/mL. Aliquots of 50 μL of this bacterial suspension were added to 50 μL of MH containing serial 2-fold dilutions of the peptides (from 100 to 0.19 μM) in the wells a 96-well plate. Ciprofloxacin was used as antibiotic control. The plate was then incubated at 37 °C. MICs were obtained from three identical readings of four independent experiments.

Data set [1] is classed as cell-based, human. The conditions noted are these: human. An outline of the steps: (§3)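 Cells were plated at about 4 × 10^4/well in 2% FBS, then exposed to peptide at 100–3.12 μM in serum-free medium for 2 h or 24 h. Viability was measured by MTT reduction (0.5 mg/mL, 4 h, absorbance 570 nm) relative to untreated cells, as the mean ± SEM of three experiments.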
The test system of data set [2] is human keratinocytes (HaCaT cells). Format: cell-based. Particulars: human, 24 h. Summed up: as §3
The test system of data set [3] is S. epidermidis ATCC 12228. Description: microbe, parasite or virus in culture. Type of data set: cell-based. Particulars: ATCC 12228. Summed up:
(§4)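 Mid-log bacteria diluted to 2 × 10^6 cell/mL in Mueller Hinton broth and incubated with compound at 37 °C; ciprofloxacin as control. MICs from three identical readings across four independent experiments.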

For the next data set, the system named is S. aureus ATCC 25923. Description: microbe, parasite or virus in culture. Type of data set: cell-based. The conditions noted are these: ATCC 25923. An outline of the steps: as §4
The test system of a further data set is P. aeruginosa PAO1. Nature of the data set: microbe, parasite or virus in culture. Format: cell-based. The conditions noted are these: PAO1. An outline of the steps: as §4
For a further data set, the system named is A. baumannii ATCC 19606. Nature of the data set: microbe, parasite or virus in culture. The conditions noted are these: ATCC 19606. Type of data set: cell-based. Summed up:
as §4

The subject of the next data set is E. coli ATCC 25922. Nature of the data set: microbe, parasite or virus in culture. Type of data set: cell-based. Particulars: ATCC 25922. An outline of the steps: as §4
Another data set relates to E. faecalis ATCC 29212. Nature of the data set: microbe, parasite or virus in culture. Format: cell-based. Particulars: ATCC 29212. Summed up: as §4
Another data set relates to B. megaterium BM11. Description: microbe, parasite or virus in culture. Format: cell-based. The conditions noted are these: BM11. An outline of the steps:
as §4

In another data set the test system is E. coli D21. Nature of the data set: microbe, parasite or virus in culture. The conditions noted are these: D21. Format: cell-based. Summed up:
as §4

A further data set has as its system S. agalactiae ATCC 27591. Description: microbe, parasite or virus in culture. Format: cell-based. The conditions noted are these: ATCC 27591. Summed up: as §4
For data set [4], the system named is Gram-positive bacteria tested. Description: MIC panel, Gram-positive strains (geometric mean, range). Type of data set: cell-based. The conditions noted are these: geometric mean of the MICs against Gram-positive bacteria tested. The method, then: as §1, §2
The nature of data set [5]: Circular dichroism in water (BeStSel). The conditions noted are these: predicted from CD spectra in H2O using BeStSel. Type of data set: physicochemical. The method, then:
The secondary structure of each peptide was studied in solution and in small unilamellar vesicles (SUVs) mimicking Gram-positive and Gram-negative membranes performing CD analysis. The CD spectrum for each peptide in solution was recorded at 150 μM, using the quartz cells of 0.1 cm path length with a Jasco J-1500 CD Spectrometer at 25 °C. SUVs at the concentration of 150 μM (P/L = 1) and […] (P/L = 0.4) were prepared as reported: the lipid film was hydrated with water for 1h and then sonicated for 30 min. CD spectra were recorded at the peptide/lipid ratio of 1:1 both in the presence with SUVs mimicking Gram-positive and Gram-negative membranes. CD spectra were recorded at 25 °C on a in a 0.1 cm quartz cell using three consecutive scans from 260 to 190 nm, 3 nm bandwidth, a time constant of 16 s, and a scan rate of 10 nm/min.

In data set [6] the test system is Gram-negative bacteria tested. Nature of the data set: MIC panel, Gram-negative strains (geometric mean). Type of data set: cell-based. The conditions noted are these: geometric mean of the MICs against Gram-negative bacteria tested. The method, then:
as §1, §2

In data set [7] the test system is methicillin-resistant Staphylococcus aureus (MRSA). Particulars: MRSA strain; ref Verma et al.; cited from earlier work.

Values after ≈ are worked out from the molar mass of the structure shown. Bridge positions count the residues as written; N and C are the ends. Square brackets hold non-standard residues; d marks the D form. Peptide text beside a SMILES is read from it.

This is an account of results in article PMC12703733, “Probing Guanidino Pendant or Bridged Groups in Cyclic Antimicrobial Peptides Derived from Temporin L: A Strategy to Improve Efficacy against Gram-Negative Bacteria” (Journal of Medicinal Chemistry, 2025).

Take `CC[C@H](C)[C@H](NC(=O)[C@H](CCCNC(=N)N)NC(=O)[C@H]1CCC(=O)NCCCC[C@H](NC(=O)[C@H](Cc2ccccc2)NC(=O)[C@H](Cc2c[nH]c3ccccc23)NC(=O)[C@@H]2CCCN2C(=O)[C@@H](NC(=O)[C@@H](N)Cc2ccccc2)C(C)C)C(=O)N[C@@H](CCCNC(=N)N)C(=O)N[C@@H](Cc2ccccc2)C(=O)N[C@H](CC(C)C)C(=O)N1)C(=O)N[C@@H](CC(C)C)C(N)=O` [Peptide 9, FVPWF[KRFle]RIL] (H-FVPWFKRF[dL][dE]RIL-NH2; lactam 6-10): in “circular dichroism”, the helicity came out at 11%. The “geometric mean GMall” value in the data set with all bacteria tested was 7.67 µM. For the same molecule, the CC50 at 24 h in data set [1] (CC50) was greater than 50 µM. Further, in data set [1] (Cell viability (%)), the viability at 2 h, 3.12 µM came out at 106%; the viability at 2 h, 6.25 µM turned out to be 106%; the viability at 2 h, 12.5 µM was 98%; the viability at 2 h, 25 µM worked out at 94%. In addition, in data set [1] (Cell viability (%)), the viability at 2 h, 50 µM turned out to be 74%; the viability at 2 h, 100 µM stood at 22%; the viability at 24 h, 3.12 µM was determined as 115 ± 23%; the viability at 24 h, 6.25 µM came to 109 ± 24%. Also, in data set [1] (Cell viability (%)), the viability at 24 h, 12.5 µM is 112 ± 20%; the viability at 24 h, 25 µM was determined as 120 ± 13%; the viability at 24 h, 50 µM worked out at 82 ± 10%; the viability at 24 h, 100 µM came out at 4 ± 2%. The molecule further showed a CC50 in data set [2] of 54.3 µM. Moreover, in [3], the MIC stood at 3.12 µM (≈ 5.4 µg/mL). Further, the MIC against S. aureus ATCC 25923 turned out to be 6.25 µM (≈ 10.8 µg/mL). Further, in the data set with P. aeruginosa PAO1, the MIC was 50 µM (≈ 86.6 µg/mL). In addition, the MIC in the data set with A. baumannii ATCC 19606 came to 3.12 µM (≈ 5.4 µg/mL). In the data set with E. coli ATCC 25922, this molecule came in with an MIC of 6.25 µM (≈ 10.8 µg/mL). In the data set with E. faecalis ATCC 29212, this molecule showed an MIC of 12.5 µM (≈ 21.7 µg/mL). This molecule also came in with an MIC in the data set with B. megaterium BM11 of 1.56 µM (≈ 2.7 µg/mL). The same molecule had an MIC against E. coli D21 of 6.25 µM (≈ 10.8 µg/mL). In addition, the MIC against S. agalactiae ATCC 27591 stood at 3.12 µM (≈ 5.4 µg/mL). For the same molecule, the “geometric mean GMGram+” value in data set [4] is 4.11 µM. In addition, in [5], the “Content in water (%) random” value is 53%, the “Content in water (%) α-helix” value was 11% and the “Content in water (%) β-strand” value is reported as 36%. For the same molecule, the “geometric mean GMGram–” value in [6] stood at 14.32 µM.
Take “FVQWFSKFLGRIL [TL, 13-mer linear antimicrobial peptide from Rana temporaria]”: the MIC in data set [7] was 6.25 µM.
